Source: ChEMBL document CHEMBL2086269, “Identification of new snake venom metalloproteinase inhibitors using compound screening and rational Peptide design” (ACS Med Chem Lett, 2012)
Structures can show the parent of a compound that is named as a salt. The source made the active and inactive calls. The calls are words filed in the database; no cut-off is given here. Residues, ends and D or L forms follow the SMILES beside them. *: point of attachment. NHOH = ON*

Tested on: not listed separately
Experiment: Displacement of PAC1 from Zn2+ incubated for 30 mins prior to PAC1 addition measured after 30 mins by spectrophotometry

For `CC(C)C[C@H](NC(=O)[C@@H](N)Cc1ccccc1)C(=O)N[C@@H](CCCNC(=N)N)C(=O)NO` (H-Phe-Leu-Arg-{NHOH}), the Activity was “Active”.
For `CC(C)C[C@H](NC(=O)[C@@H](N)Cc1ccccc1)C(=O)N[C@@H](Cc1ccccc1)C(=O)NO` (H-Phe-Leu-Phe-{NHOH}), the Activity was “Active”.

Biological target: T1, Snake venom metalloproteinase BaP1 (Bothrops asper, UniProt P83512)
T1 sequence (P83512 whole entry): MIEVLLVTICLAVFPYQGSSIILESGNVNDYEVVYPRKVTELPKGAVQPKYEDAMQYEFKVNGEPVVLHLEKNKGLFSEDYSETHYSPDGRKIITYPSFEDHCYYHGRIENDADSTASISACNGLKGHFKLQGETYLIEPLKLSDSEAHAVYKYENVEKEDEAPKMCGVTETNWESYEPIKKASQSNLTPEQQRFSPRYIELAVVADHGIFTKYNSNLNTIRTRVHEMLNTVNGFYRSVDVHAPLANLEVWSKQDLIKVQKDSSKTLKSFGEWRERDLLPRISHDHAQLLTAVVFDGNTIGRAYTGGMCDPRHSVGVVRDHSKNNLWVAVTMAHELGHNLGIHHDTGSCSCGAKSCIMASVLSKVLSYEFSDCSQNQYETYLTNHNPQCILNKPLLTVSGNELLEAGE
Experiment: Inhibition of snake venom BaP1 using Abz-Ala-Gly-Leu-Ala-Nba as substrate incubated for 30 mins prior to substrate addition by fluorescence spectrophotometry

Point of comparison: `CNC(=O)[C@H](Cc1ccccc1)NC(=O)[C@H](CC(C)C)[C@H](CSc1cccs1)C(=O)NO` [BATIMASTAT], IC50 1.2 µM. Against it:
- CC(C)C[C@H](NC(=O)[C@@H](N)Cc1c[nH]c2ccccc12)C(=O)N[C@@H](CCCNC(=N)N)C(=O)NO — 180-fold higher, 217 µM
- CC(C)C[C@H](NC(=O)[C@@H](N)Cc1ccccc1)C(=O)N[C@@H](CCCNC(=N)N)C(=O)NO (H-Phe-Leu-Arg-{NHOH}) — 3.8-fold higher, 4.6 µM
- CC(C)C[C@H](NC(=O)[C@@H](N)Cc1ccccc1)C(=O)N[C@@H](Cc1cnc[nH]1)C(=O)NO (H-Phe-Leu-His-{NHOH}) — 90-fold higher, 108 µM
- CC(C)C[C@H](NC(=O)[C@@H](N)Cc1ccccc1)C(=O)N[C@@H](Cc1ccccc1)C(N)=O (H-Phe-Leu-Phe-NH2) — 690-fold higher, 825 µM
- CC(C)C[C@H](NC(=O)[C@@H](N)Cc1ccccc1)C(=O)N[C@@H](Cc1ccccc1)C(=O)NO (H-Phe-Leu-Phe-{NHOH}) — 2.4-fold lower, 0.5 µM
- CC(C)C[C@H](NC(=O)[C@@H](N)Cc1ccccc1)C(=O)N[C@@H](Cc1ccc(O)cc1)C(N)=O (H-Phe-Leu-Tyr-NH2) — higher, > 1000 µM
- CC(C)C[C@H](NC(=O)[C@@H](N)Cc1ccccc1)C(=O)N[C@@H](Cc1ccc(O)cc1)C(=O)NO (H-Phe-Leu-Tyr-{NHOH}) — 26-fold higher, 30.9 µM
- CC(C)C[C@H](NC(=O)[C@@H](N)Cc1c[nH]c2ccccc12)C(=O)N[C@@H](Cc1cnc[nH]1)C(=O)NO (H-Trp-Leu-His-{NHOH}) — 49-fold higher, 58.4 µM
- CC(C)C[C@H](NC(=O)[C@@H](N)Cc1c[nH]c2ccccc12)C(=O)N[C@@H](Cc1ccccc1)C(N)=O (H-Trp-Leu-Phe-NH2) — higher, > 1000 µM
- CC(C)C[C@H](NC(=O)[C@@H](N)Cc1c[nH]c2ccccc12)C(=O)N[C@@H](Cc1ccccc1)C(=O)NO (H-Trp-Leu-Phe-{NHOH}) — 29-fold higher, 34.2 µM
- CC(C)C[C@H](NC(=O)[C@@H](N)Cc1c[nH]c2ccccc12)C(=O)N[C@@H](Cc1ccc(O)cc1)C(N)=O (H-Trp-Leu-Tyr-NH2) — 340-fold higher, 402 µM
- CC(C)C[C@H](NC(=O)[C@@H](N)Cc1c[nH]c2ccccc12)C(=O)N[C@@H](Cc1ccc(O)cc1)C(=O)NO (H-Trp-Leu-Tyr-{NHOH}) — 39-fold higher, 46.2 µM
- COc1ccc2c3c([nH]c2c1)C(C)=NCC3 [HARMALINE HYDROCHLORIDE DIHYDRATE] — 59-fold higher, 70.4 µM
- NC(=O)N/N=C/c1ccc([N+](=O)[O-])o1 [NITROFURAZONE] — 73-fold higher, 88.1 µM
- COc1cc2c(cc1OC)-c1cc3ccc(OC)c(OC)c3c[n+]1CC2 [PALMATINE CHLORIDE] — 78-fold higher, 93.3 µM
- Nc1ccc(/N=N/c2ccccc2)c(N)n1 [PHENAZOPYRIDINE HYDROCHLORIDE] — 45-fold higher, 54.3 µM
